Reference: US9296759B2, “Amino-oxazine and amino-dihydrothiazine compounds as beta-secretase modulators and methods of use” (AMGEN INC., priority 2011, dated 2016)
Like-named read-outs stand apart in the source and are kept apart here.

Tests used:
Cathepsin D = Cathepsin D (Homo sapiens (Human), UniProt P07339); assay: In vitro enzymatic Cat D (Cathepsin D) FRET assay; type: biochemical; conditions: average IC50
Summary of the method: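 CHO-expressed recombinant enzyme in 0.05 M citrate pH 3.5, 5 mM CHAPS, 10% DMSO final; reaction started with 20 nM quenched-peptide FRET substrate (cleavage site spanned by fluorophore/quencher), 1 h incubation.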

[1] = target: BACE 1 (beta secretase enzyme) (Homo sapiens (Human), UniProt P56817); assay: In vitro enzymatic BACE FRET assay; type: biochemical; conditions: average IC50
Chain of BACE 1 (beta secretase enzyme) (P56817 46-501): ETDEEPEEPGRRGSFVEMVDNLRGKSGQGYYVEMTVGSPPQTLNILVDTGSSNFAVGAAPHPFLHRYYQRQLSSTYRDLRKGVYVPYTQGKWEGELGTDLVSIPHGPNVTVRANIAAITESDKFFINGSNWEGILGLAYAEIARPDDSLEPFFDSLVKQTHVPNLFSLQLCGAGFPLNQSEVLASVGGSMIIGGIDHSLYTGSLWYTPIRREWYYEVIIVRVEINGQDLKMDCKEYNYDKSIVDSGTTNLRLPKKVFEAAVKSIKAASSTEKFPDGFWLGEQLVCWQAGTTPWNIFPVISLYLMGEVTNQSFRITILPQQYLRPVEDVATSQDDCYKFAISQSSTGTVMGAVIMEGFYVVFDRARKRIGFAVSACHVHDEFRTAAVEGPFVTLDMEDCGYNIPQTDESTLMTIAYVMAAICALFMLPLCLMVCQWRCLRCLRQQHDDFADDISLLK
Summary of the method: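 The enzyme was tested in 0.05 M acetate, pH 4.2, with 10% DMSO final and 100 uM genapol. The reaction was started with 50 nM quenched FRET peptide substrate, incubated one hour and stopped with Tris to neutral pH. Cleavage was read as fluorescence ([…]).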

[2] = test system: Aβ40 in conditioned medium of cells stably expressing Amyloid Precursor Protein (APP); assay: In vitro BACE cell-based assay (HEK cell assay, Aβ40 sandwich ELISA); conditions: Homo sapiens, HEK293; average IC50, Aβ40, 24 h incubation
Summary of the method: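 Secreted Aβ40 was quantified by sandwich ELISA (pAb40 capture, biotinylated 6E10 detection, Europium time-resolved fluorescence). IC50 derived from percent inhibition versus concentration.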

Abeta 40 = assay: In vivo inhibition of beta-secretase: Abeta 40 reduction in CSF and brain of the rat; conditions: 10 mpk, after 4 hrs
Excerpt: In Vivo Inhibition of Beta-Secretase
Several animal models, including mouse, rat, dog, and monkey, may be used to screen for inhibition of beta-secretase activity in vivo following administration of a test compound sample. Animals used in this invention can be wild type, transgenic, or gene knockout animals. For example, the Tg2576 mouse model, prepared and conducted as described in Hsiao et al., 1996, Science 274, 99-102, and other non-transgenic or gene knockout animals are useful to analyze in vivo inhibition of Amyloid beta peptide (Abeta) production in the presence of inhibitory test compounds. Generally, 2 to 18 month old Tg2576 mice, gene knockout mice or non-transgenic animals are administered test compounds formulated in vehicles, such as cyclodextran, phosphate buffers, hydroxypropyl methylcellulose or other suitable vehicles. One to twenty-four hours following the administration of compound, animals are sacrificed, and brains as well as cerebrospinal fluid (CSF) and plasma are removed for analysis of A-beta levels and drug or test compound concentrations (Dovey et al., 2001, Journal of Neurochemistry, 76, 173-181) Beginning at time 0, animals are administered by oral gavage, or other means of delivery such as intravenous injection, an inhibitory test compound of up to 100 mg/kg in a standard, conventional formulation, such as 2% hydroxypropyl methylcellulose, 1% Tween80. A separate group of animals receive 2% hydroxypropyl methylcellulose, 1% Tween80 alone, containing no test compound, and serve as a vehicle-control group. At the end of the test period, animals are sacrificed and brain tissues, plasma or cerebrospinal fluid are collected. Brains are either homogenized in 10 volumes (w/v) of 0.2% diethylamine (DEA) in 50 mM NaCl (Best et al., 2005, Journal of Pharmacology and Experimental Therapeutics, 313, 902-908), or in 10 volumes of 0.5% TritonX-100 in Tris-buffered saline (pH at about 7.6). Homogenates are centrifuged at 355,000 g, 4° C. for 30 minutes. CSF or brain supernatants are then analyzed for the presence of A-beta peptide by specific sandwich ELISA assays based on ECL (Electrochemiluminescence) technology. For example, rat Abeta40 is measured using biotinylated-4G8 (Signet) as a capture antibody and Fab40 (an in-house antibody specific to the C-terminal of Abeta40) as a detection antibody. For example, 4 hours after administration of 30 mg/kg oral dose of the test compound in 2% hydroxypropyl methylcellulose, 1% Tween80 (pH2.2) to 200 g male Sprague Dawley rats, amyloid beta peptide levels are measured for reduction by X % and Y % in cerebrospinal fluid and brain, respectively, when compared to the levels measured in the vehicle-treated rats.
• Oral: 2% HPMC, 1% Tween80, pH 2.2 • IV: 5% EtOH, 45% Propylene glycol in 5% Dextrose
The compounds of the invention may be shown to reduce the formation and/or deposition of amyloid beta peptide in the cerebrospinal fluid (CSF) as well as in the brain of a mouse or rat at either 3 mpk, 10 mpk or 30 mpk (mpk=mg compound per kg weight of the animal) dosing concentrations after 4 hrs.

[3] = Abeta 40, rat CSF, read-out: % reduction of rat CSF levels at 10 pmk
[4] = Abeta 40, rat brain, read-out: % reduction of rat brain levels at 10 mpk

Chain of Cathepsin D (P07339 65-412, species assumed): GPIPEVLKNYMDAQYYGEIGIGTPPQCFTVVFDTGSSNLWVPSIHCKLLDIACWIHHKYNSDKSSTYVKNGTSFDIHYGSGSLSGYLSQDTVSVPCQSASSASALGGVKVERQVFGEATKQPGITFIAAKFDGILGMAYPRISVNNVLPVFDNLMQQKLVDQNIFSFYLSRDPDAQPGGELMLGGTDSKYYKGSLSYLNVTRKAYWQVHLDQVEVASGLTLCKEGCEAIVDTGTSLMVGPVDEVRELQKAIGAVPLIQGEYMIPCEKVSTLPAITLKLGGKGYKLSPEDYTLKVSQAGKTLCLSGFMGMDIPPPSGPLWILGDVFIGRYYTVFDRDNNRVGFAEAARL

| IC50 (Cathepsin D) | IC50 [1] | IC50 [2] | SMILES | inhibition in vivo at 10 mg/kg (Abeta 40; [3]) | inhibition in vivo at 10 mg/kg (Abeta 40; [4]) |
| --- | --- | --- | --- | --- | --- |
| 245000 nM | 13.6 nM | 7 nM | NC1=N[C@@]2(CCO1)c1cc(NC(=O)c3ccc(Cl)cn3)ccc1Oc1ncc(Br)cc12 [Example 34, N-((5S)-2′-amino-3-bromo-5′,6′-dihydrospiro[chromeno[2,3-b]pyridine-5,4′-[1,3]oxazin]-7-yl)-5-chloro-2-pyridinecarboxamide] | 64% | 17% |
| 184000 nM | 1.5 nM | 0.2 nM | COc1ccc(C(=O)Nc2ccc3c(c2)[C@@]2(CCOC(N)=N2)c2cc(C4=CCOCC4)nc(F)c2O3)nc1 [Example 78, N-((5S)-2′-amino-3-(3,6-dihydro-2H-pyran-4-yl)-1-fluoro-5′,6′-dihydrospiro[chromeno[2,3-c]pyridine-5,4′-[1,3]oxazin]-7-yl)-5-methoxy-2-pyridinecarboxamide] | 77% | 70% |
| 362000 nM | 0.6 nM | 0.2 nM | Cc1nc(C(=O)Nc2ccc3c(c2)[C@@]2(CCOC(N)=N2)c2cc(-c4cncc(F)c4)nc(F)c2O3)cs1 [Example 88, N-((5S)-2′-amino-1-fluoro-3-(5-fluoro-3-pyridinyl)-5′,6′-dihydrospiro[chromeno[2,3-c]pyridine-5,4′-[1,3]oxazin]-7-yl)-2-methyl-1,3-thiazole-4-carboxamide] | 49% | 27% |
| 256000 nM | 1.4 nM | 0.5 nM | COc1ccc(C(=O)Nc2ccc3c(c2)[C@@]2(CCOC(N)=N2)c2cc(-c4cncc(F)c4)nc(F)c2O3)nc1 [Example 87, N-((5S)-2′-amino-1-fluoro-3-(5-fluoro-3-pyridinyl)-5′,6′-dihydrospiro[chromeno[2,3-c]pyridine-5,4′-[1,3]oxazin]-7-yl)-5-methoxy-2-pyridinecarboxamide] | 75% | 53% |
| 160000 nM | 1.6 nM | 1.4 nM | COc1cnc(C(=O)Nc2ccc3c(c2)[C@@]2(CCSC(N)=N2)c2cc(C4=CCOCC4)nc(F)c2O3)cn1 [Example 67, N-((5S)-2′-amino-3-(3,6-dihydro-2H-pyran-4-yl)-1-fluoro-5′,6′-dihydrospiro[chromeno[2,3-c]pyridine-5,4′-[1,3]thiazin]-7-yl)-5-methoxy-2-pyrazinecarboxamide] | 66% | 58% |
| 179000 nM | 1.8 nM | 1 nM | COc1cnc(C(=O)Nc2ccc3c(c2)[C@@]2(CCSC(N)=N2)c2cc(C4=CCCOC4)nc(F)c2O3)cn1 [Example 66, N-((5S)-2′-amino-3-(5,6-dihydro-2H-pyran-3-yl)-1-fluoro-5′,6′-dihydrospiro[chromeno[2,3-c]pyridine-5,4′-[1,3]thiazin]-7-yl)-5-methoxy-2-pyrazinecarboxamide] | 77% | 66% |
| 400000 nM | 0.6 nM | 0.3 nM | NC1=N[C@@]2(CCO1)c1cc(NC(=O)c3ccc(Cl)cn3)ccc1Oc1c2cc(-c2cncc(F)c2)nc1F [Example 71, N-((5S)-2′-amino-1-fluoro-3-(5-fluoro-3-pyridinyl)-5′,6′-dihydrospiro[chromeno[2,3-c]pyridine-5,4′-[1,3]oxazin]-7-yl)-5-chloro-2-pyridinecarboxamide] | 79% | 70% |
| 295000 nM | 3.1 nM | 1 nM | COc1cnc(C(=O)Nc2ccc3c(c2)[C@@]2(CCSC(N)=N2)c2cc(C4=CCCOC4)ncc2O3)cn1 [Example 104, N-((5S)-2′-amino-3-(5,6-dihydro-2H-pyran-3-yl)-5′,6′-dihydrospiro[chromeno[2,3-c]pyridine-5,4′-[1,3]thiazin]-7-yl)-5-methoxy-2-pyrazinecarboxamide] | 64% | 43% |
| 963000 nM | 6.8 nM | 1.5 nM | COc1cnc(C(=O)Nc2ccc3c(c2)[C@@]2(CCOC(N)=N2)c2cc(C4CC4)ncc2O3)cn1 [Example 80, N-((5S)-2′-amino-3-cyclopropyl-5′,6′-dihydrospiro[chromeno[2,3-c]pyridine-5,4′-[1,3]oxazin]-7-yl)-5-methoxy-2-pyrazinecarboxamide] | 82% | 80% |
| 400000 nM | 3 nM | 0.5 nM | NC1=N[C@@]2(CCO1)c1cc(NC(=O)c3ccc(Cl)cn3)ccc1Oc1cnc(C3=CCCOC3)cc12 [Example 59, N-((5S)-2′-amino-3-(5,6-dihydro-2H-pyran-3-yl)-5′,6′-dihydrospiro[chromeno[2,3-c]pyridine-5,4′-[1,3]oxazin]-7-yl)-5-chloro-2-pyridinecarboxamide] | 57% | 50% |
| 433000 nM | 12.7 nM | 3.2 nM | NC1=N[C@@]2(CCO1)c1cc(NC(=O)c3ccc(Cl)cn3)ccc1Oc1ncc(C3CC3)cc12 [Example 73, N-((5S)-2′-amino-3-cyclopropyl-5′,6′-dihydrospiro[chromeno[2,3-b]pyridine-5,4′-[1,3]oxazin]-7-yl)-5-chloro-2-pyridinecarboxamide] | 38% | 7% |
| 358000 nM | 1.1 nM | 0.2 nM | NC1=N[C@@]2(CCO1)c1cc(NC(=O)c3ccc(F)cn3)ccc1Oc1c2cc(C2=CCOCC2)nc1F [Example 72, N-((5S)-2′-amino-3-(3,6-dihydro-2H-pyran-4-yl)-1-fluoro-5′,6′-dihydrospiro[chromeno[2,3-c]pyridine-5,4′-[1,3]oxazin]-7-yl)-5-fluoro-2-pyridinecarboxamide] | 78% | 72% |
| 400000 nM | 1.6 nM | 0.6 nM | NC1=N[C@@]2(CCO1)c1cc(NC(=O)c3ccc(F)cn3)ccc1Oc1c2cc(-c2cncc(F)c2)nc1F [Example 89, N-((5S)-2′-amino-1-fluoro-3-(5-fluoro-3-pyridinyl)-5′,6′-dihydrospiro[chromeno[2,3-c]pyridine-5,4′-[1,3]oxazin]-7-yl)-5-fluoro-2-pyridinecarboxamide] | 69% | 46% |
| 269000 nM | 5 nM | 9.6 nM | COc1cnc(C(=O)Nc2ccc3c(c2)[C@@]2(CCOC(N)=N2)c2cc(C4CC4)nc(F)c2O3)cn1 [Example 54, N-((5S)-2′-amino-3-cyclopropyl-1-fluoro-5′,6′-dihydrospiro[chromeno[2,3-c]pyridine-5,4′-[1,3]oxazin]-7-yl)-5-methoxy-2-pyrazinecarboxamide] | 77% | 65% |
| 400000 nM | 1.3 nM | 0.6 nM | COc1cnc(C(=O)Nc2ccc3c(c2)[C@@]2(CCOC(N)=N2)c2cc(-c4cncc(F)c4)nc(F)c2O3)cn1 [Example 70, N-((5S)-2′-amino-1-fluoro-3-(5-fluoro-3-pyridinyl)-5′,6′-dihydrospiro[chromeno[2,3-c]pyridine-5,4′-[1,3]oxazin]-7-yl)-5-methoxy-2-pyrazinecarboxamide] | 70% | 59% |
